This passage reports Ki and IC50 results from patent US8129366B2, “VLA-4 inhibitory drug” (Daiichi Sankyo Company, Limited, priority 2005, dated 2012).

For the assay, the target named is T1, hα4 and β1 integrins (Homo sapiens, UniProt P05556+P13612).
T1 construct: expressed in transfected cells; host or cells: CHO cells
Description: In vitro inhibition of binding between CHO cells expressing hα4 and β1 integrins and Eu3+-hVCAM-1 D1D7-IgG. The conditions noted are these: for Ki: CHO cells expressing hα4 and β1 integrins, Eu3+-hVCAM-1 D1D7-IgG ligand, without HSA; for IC50: in the presence of 3% human serum albumin (HSA final concentration 3%). On the procedure:
CHO cells which forcibly expressed hα4 and β1 integrins through transfection thereof, were inoculated into a Costar 3599 plate (3×10^4 cells/100 μl/well), and cultured for two days. The cells in the wells were washed two times with buffer A*, and then Eu^3+-hVCAM-1 D1D7-IgG diluted with assay buffer** to 2 nM was added in an amount of 50 μl/well. The substance under test diluted with 26 DMSO-assay buffer (in the co-presence or absence of 6% human serum albumin) was added in an amount of 50 μl/well (adding separately diluted solution to the wells for performing Scatchard analysis), the contents were stirred for 5 minutes with a plate mixer, and then the plate was left to stand still for one hour at room temperature. The binding inhibitory activity in the presence of human serum albumin (HSA) was examined by diluting the specimen with 26 DMSO-assay buffer containing 6% HSA (SIGMA Corp., c/n A-1653), and adding the resultant (HSA final concentration 3%). After 30 to 60 minutes of the addition of specimen, the plate contents were washed 4 times with buffer A at 4° C., an enhancing reagent (DELFIA SA) was added in an amount of 100 μl/well, and the plate was shaken for 5 minutes using a plate mixer. Subsequently, the fluorescence intensity was measured with a time-resolved fluorometer (DELFIA Wallac). The IC50 of the substance under test (the concentration for 50% inhibition of the binding between CHO cells and Eu^3+-hVCAM-1 D1D7-IgG) was determined from the binding rate obtained from the calculating expression of [(FT−FNS)−(FI−FNS)]/[(FT−FNS)]×100. Here, FT represents the fluorescence intensity of a well not containing the substance under test; FNS represents the fluorescence intensity of a well not containing the substance under test and hVCAM-1 D1D7-IgG; and FI represents the fluorescence intensity of a well containing the substance under test. The Kd value which represents the strength of binding, and Bmax (maximum binding amount) were estimated to be in the range of 0.06 to 20 nM according to the Scatchard analysis method. The evaluation results of the Ki value of the substance under test, and of the IC50 value in the presence of 3% HSA are presented in Tables 2 to 7.
The Ki value was calculated according to the above-described expression. ([L] is the ligand concentration)
[* buffer A: 25 mM HEPES (pH 7.5), 150 mM NaCl, 1 mM Ca^2+, 1 mM Mg^2+, 4 mM Mn2+;
** assay buffer: 25 mM HEPES (pH=7.5), 150 mM NaCl, 1 mM Ca^2+, 1 mM Mg^2+, 4 mM Mn^2+, 0.1% BSA, 20 μM DTPA, with/without 6% ALBUMIN, HUMAN SERUM (C/N A-1653, SIGMA)]

T1 sequence (P13612 34-1032): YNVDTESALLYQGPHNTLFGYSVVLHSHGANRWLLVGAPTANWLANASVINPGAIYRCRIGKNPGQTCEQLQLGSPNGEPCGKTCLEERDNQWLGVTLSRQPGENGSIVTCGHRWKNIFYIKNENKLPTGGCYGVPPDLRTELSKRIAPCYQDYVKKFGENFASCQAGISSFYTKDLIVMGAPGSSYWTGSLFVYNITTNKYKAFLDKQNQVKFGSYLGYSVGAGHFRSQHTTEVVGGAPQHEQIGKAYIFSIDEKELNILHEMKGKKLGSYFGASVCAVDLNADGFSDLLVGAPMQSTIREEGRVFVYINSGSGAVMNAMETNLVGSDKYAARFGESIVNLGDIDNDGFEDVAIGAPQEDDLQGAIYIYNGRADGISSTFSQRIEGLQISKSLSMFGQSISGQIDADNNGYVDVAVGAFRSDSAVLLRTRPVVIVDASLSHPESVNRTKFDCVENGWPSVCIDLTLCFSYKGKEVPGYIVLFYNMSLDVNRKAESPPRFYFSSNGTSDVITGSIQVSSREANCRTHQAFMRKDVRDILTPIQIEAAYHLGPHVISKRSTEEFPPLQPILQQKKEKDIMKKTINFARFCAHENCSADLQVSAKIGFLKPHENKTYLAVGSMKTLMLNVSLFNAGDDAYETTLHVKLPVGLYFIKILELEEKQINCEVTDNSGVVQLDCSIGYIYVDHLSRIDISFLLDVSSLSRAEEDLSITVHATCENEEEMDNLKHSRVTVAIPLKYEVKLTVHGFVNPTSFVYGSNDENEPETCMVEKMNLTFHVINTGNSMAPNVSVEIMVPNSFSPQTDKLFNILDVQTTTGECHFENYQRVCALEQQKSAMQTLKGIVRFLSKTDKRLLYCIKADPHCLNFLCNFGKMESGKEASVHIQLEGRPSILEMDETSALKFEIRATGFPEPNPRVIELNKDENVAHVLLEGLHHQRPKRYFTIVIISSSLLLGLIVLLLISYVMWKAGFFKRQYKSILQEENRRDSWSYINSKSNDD
T1 sequence (P05556 21-798): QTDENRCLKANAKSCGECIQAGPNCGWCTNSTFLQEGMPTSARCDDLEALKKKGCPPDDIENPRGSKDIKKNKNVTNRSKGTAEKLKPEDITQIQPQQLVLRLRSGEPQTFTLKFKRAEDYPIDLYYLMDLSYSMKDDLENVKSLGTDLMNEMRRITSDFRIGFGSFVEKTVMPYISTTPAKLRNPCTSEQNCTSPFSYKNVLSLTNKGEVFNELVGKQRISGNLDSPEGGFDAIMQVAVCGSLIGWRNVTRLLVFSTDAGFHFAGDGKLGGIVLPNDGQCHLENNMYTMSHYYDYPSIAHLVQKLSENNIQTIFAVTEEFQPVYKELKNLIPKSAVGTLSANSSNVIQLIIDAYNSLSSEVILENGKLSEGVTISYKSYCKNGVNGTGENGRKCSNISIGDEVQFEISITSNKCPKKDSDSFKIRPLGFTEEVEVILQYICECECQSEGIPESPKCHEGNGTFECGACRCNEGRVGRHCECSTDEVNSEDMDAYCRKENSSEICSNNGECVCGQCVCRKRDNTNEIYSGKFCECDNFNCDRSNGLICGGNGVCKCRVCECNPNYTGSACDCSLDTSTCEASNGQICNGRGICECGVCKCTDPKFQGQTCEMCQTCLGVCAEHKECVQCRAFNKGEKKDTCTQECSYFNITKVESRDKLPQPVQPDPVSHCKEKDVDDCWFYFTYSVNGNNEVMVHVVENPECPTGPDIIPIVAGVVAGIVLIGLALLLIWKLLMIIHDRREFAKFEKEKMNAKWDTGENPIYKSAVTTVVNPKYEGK

As to `CO[C@H]1CN([C@H]2C[C@@H](CO[C@H]3CC[C@H](C(=O)O)CC3)N(C(=O)Cc3cc(Cl)c(NC(=O)c4coc5ccccc45)cc3F)C2)C[C@H]1OC` [Example 59, Trans-4-[1-[[4-[(benzo[b]furan-3-ylcarbonyl)amino]-5-chloro-2-fluorophenyl]acetyl]-(4S)-(cis-3,4-dimethoxypyrrolidin-1-yl)-(2S)-pyrrolidinylmethoxy]cyclohexanecarboxylic acid], the Ki was 3 nM and the 50% inhibitory concentration (IC50) came out at 8.1 nM.

As to `C[C@@H]1CN([C@H]2C[C@@H](CO[C@H]3CC[C@H](C(=O)O)CC3)N(C(=O)Cc3ccc(NC(=O)c4cn(C)c5ccccc45)c(Cl)c3)C2)C[C@H](C)O1` [Example 85, Trans-4-[1-[[3-chloro-4-[(1-methyl-1H-indol-3-ylcarbonyl)amino]phenyl]acetyl]-(4S)-(cis-2,6-dimethylmorpholin-4-yl)-(2S)-pyrrolidinylmethoxy]cyclohexanecarboxylic acid], the inhibitory constant (Ki) amounted to 2 nM and the IC50 worked out at 9.2 nM.

Turning to `CC(=O)N1CCN([C@H]2C[C@@H](CO[C@H]3CC[C@H](C(=O)O)CC3)N(C(=O)Cc3cc(Cl)c(NC(=O)c4csc5ccccc45)cc3F)C2)CC1` [Example 148, Trans-4-[1-[[4-[(benzo[b]thiophen-3-ylcarbonyl)amino]-5-chloro-2-fluorophenyl]acetyl]-(4S)-(4-acetylpiperazin-1-yl)-(2S)-pyrrolidinylmethoxy]cyclohexanecarboxylic acid], the Ki stood at 0.53 nM and the IC50 was 2.8 nM.

Consider `C[C@@H]1CN([C@H]2C[C@@H](CO[C@H]3CC[C@H](C(=O)O)CC3)N(C(=O)Cc3cc(Cl)c(NC(=O)c4coc5ccccc45)cc3F)C2)C[C@H](C)N1C` [Example 146, Trans-4-[1-[[4-[(benzo[b]furan-3-ylcarbonyl)amino]-5-chloro-2-fluorophenyl]acetyl]-(4S)-(cis-1,2,6-trimethylpiperazin-4-yl)-(2S)-pyrrolidinylmethoxy]cyclohexanecarboxylic acid], for which the affinity, expressed as Ki, was 2.6 nM and the half-maximal inhibitory concentration (IC50) worked out at 7.6 nM.

As for `Cn1cc(C(=O)Nc2cc(F)c(CC(=O)N3C[C@@H](N4CCN(CC(F)F)CC4)C[C@H]3CO[C@H]3CC[C@H](C(=O)O)CC3)cc2Cl)c2ccccc21` [Example 121, Trans-4-[1-[[5-chloro-2-fluoro-4-[(1-methyl-1H-indol-3-ylcarbonyl)amino]phenyl]acetyl]-(4S)-[4-(2,2-difluoroethyl)piperazin-1-yl]-(2S)-pyrrolidinylmethoxy]cyclohexanecarboxylic acid], the Ki was 3.2 nM and the half-inhibitory concentration (IC50) amounted to 11 nM.

Consider `O=C(Nc1cc(F)c(CC(=O)N2C[C@@H](N3CCCS3(=O)=O)C[C@H]2CO[C@H]2CC[C@H](C(=O)O)CC2)cc1Cl)c1coc2ccccc12` [Example 70, Trans-4-[1-[[4-[(benzo[b]furan-3-ylcarbonyl)amino]-5-chloro-2-fluorophenyl]acetyl]-(4S)-(1,1-dioxo-1λ^6-isothiazolidin-2-yl)-(2S)-pyrrolidinylmethoxy]cyclohexanecarboxylic acid], for which the inhibition constant Ki stood at 18 nM and the half-maximal inhibitory concentration (IC50) stood at 62 nM.

`COC1CCN([C@H]2C[C@@H](CC[C@H]3CC[C@H](C(=O)O)CC3)N(C(=O)Cc3cc(Cl)c(NC(=O)c4cn(C)c5ccccc45)cc3Cl)C2)CC1` [Example 104, Trans-4-[2-[1-[[2,5-dichloro-4-[(1-methyl-1H-indol-3-ylcarbonyl)amino]phenyl]acetyl]-(4S)-(4-methoxypiperidin-1-yl)-(2S)-pyrrolidinyl]ethyl]cyclohexanecarboxylic acid]: the inhibition constant (Ki) amounted to 4.9 nM and the half-inhibitory concentration (IC50) turned out to be 13 nM.

As for `C[C@@H]1CN([C@H]2C[C@@H](CO[C@H]3CC[C@H](C(=O)O)CC3)N(C(=O)Cc3cc(Cl)c(NC(=O)c4csc5ccccc45)cc3Cl)C2)C[C@H](C)O1` [Example 82, Trans-4-[1-[[4-[(benzo[b]thiophen-3-ylcarbonyl)amino]-2,5-dichlorophenyl]acetyl]-(4S)-(cis-2,6-dimethylmorpholin-4-yl)-(2S)-pyrrolidinylmethoxy]cyclohexanecarboxylic acid], the affinity corresponds to a Ki of 2.4 nM and the concentration for half-maximal inhibition (IC50) is 18 nM.

For the molecule `O=C(Nc1cc(F)c(CC(=O)N2C[C@@H](N3CCN(CC(F)(F)F)CC3)C[C@H]2CO[C@H]2CC[C@H](C(=O)O)CC2)cc1Cl)c1coc2ccccc12` [Example 126, Trans-4-[1-[[4-[(benzo[b]furan-3-ylcarbonyl)amino]-5-chloro-2-fluorophenyl]acetyl]-(4S)-[4-(2,2,2-trifluoroethyl)piperazin-1-yl]-(2S)-pyrrolidinylmethoxy]cyclohexanecarboxylic acid], the Ki worked out at 2.4 nM and the IC50 was determined as 13 nM.

For `O=C(Nc1cc(F)c(CC(=O)N2C[C@@H](N3C[C@@H]4CS(=O)(=O)C[C@@H]4C3)C[C@H]2CO[C@H]2CC[C@H](C(=O)O)CC2)cc1Cl)c1coc2ccccc12` [Example 77, Trans-4-[1-[[4-[(benzo[b]furan-3-ylcarbonyl)amino]-5-chloro-2-fluorophenyl]acetyl]-(4S)-[(3a,6a-cis)-hexahydro-2,2-dioxo-2λ^6-thieno[3,4-c]pyrrol-5-yl]-(2S)-pyrrolidinylmethoxy]cyclohexanecarboxylic acid], the affinity corresponds to a Ki of 2 nM and the IC50 was 4.1 nM.

Take `Cn1cc(C(=O)Nc2cc(Cl)c(CC(=O)N3C[C@@H](N4CCCCC4)C[C@H]3CO[C@H]3CC[C@H](C(=O)O)CC3)cc2Cl)c2ccccc21` [Example 96, Trans-4-[1-[[2,5-dichloro-4-[(1-methyl-1H-indol-3-ylcarbonyl)amino]phenyl]acetyl]-(4S)-(piperidin-1-yl)-(2S)-pyrrolidinylmethoxy]cyclohexanecarboxylic acid]: the inhibition constant (Ki) stood at 3.9 nM and the IC50 came to 7.4 nM.

Regarding `Cn1cc(C(=O)Nc2cc(Cl)c(CC(=O)N3C[C@@H](N4CCN(C(C)(C)CF)CC4)C[C@H]3CO[C@H]3CC[C@H](C(=O)O)CC3)cc2Cl)c2ccccc21` [Example 119, Trans-4-[1-[[2,5-dichloro-4-[(1-methyl-1H-indol-3-ylcarbonyl)amino]phenyl]acetyl]-(4S)-[4-(1,1-dimethyl-2-fluoroethyl)piperazin-1-yl]-(2S)-pyrrolidinylmethoxy]cyclohexanecarboxylic acid], the affinity, expressed as Ki, was 4.5 nM and the IC50 came out at 20 nM.

For the molecule `O=C(Nc1cc(F)c(CC(=O)N2C[C@@H](N3CCCOCC3)C[C@H]2CO[C@H]2CC[C@H](C(=O)O)CC2)cc1Cl)c1coc2ccccc12` [Example 168, Trans-4-[1-[[4-[(benzo[b]furan-3-ylcarbonyl)amino]-5-chloro-2-fluorophenyl]acetyl]-(4S)-([1,4]-oxazepan-4-yl)-(2-S)-pyrrolidinylmethoxy]cyclohexanecarboxylic acid], the inhibition constant (Ki) turned out to be 2 nM and the IC50 was determined as 9.4 nM.

On to `COC1(C)CN([C@H]2C[C@@H](CO[C@H]3CC[C@H](C(=O)O)CC3)N(C(=O)Cc3cc(Cl)c(NC(=O)c4cn(C)c5ccccc45)cc3F)C2)C1` [Example 16, Trans-4-[1-[[5-chloro-2-fluoro-4-[(1-methyl-1H-indol-3-ylcarbonyl)amino]phenyl]acetyl]-(4S)-(3-methoxy-3-methylazetidin-1-yl)-(2S)-pyrrolidinylmethoxy]cyclohexanecarboxylic acid], for which the Ki stood at 5.3 nM and the half-maximal inhibitory concentration (IC50) is 41 nM.

The term Ki denotes the equilibrium dissociation constant of an inhibitor or competing ligand from its target. In general, IC50 refers to the point on the concentration scale where inhibition reaches its midpoint.
